Source: ChEMBL document CHEMBL4004859, “Synthesis, antimalarial activity, heme binding and docking studies of N-substituted 4-aminoquinoline-pyrimidine molecular hybrids” (Eur J Med Chem, 2017)
pIC50: −log10 of the molar value. Active and inactive are the calls of the source. No cut-off for these calls is given here.

Key:
Vero = assay: Cytotoxicity against African green monkey Vero cells assessed as reduction in cell viability up to 10 uM after 48 hrs by neutral red assay; type: cell-based; conditions: chlorocebus sabaeus
[1] = Selectivity index, ratio of IC50 for African green monkey Vero cells to IC50 for chloroquine-sensitive Plasmodium falciparum D6 infected in red blood cells; type: toxicity, cell-based; conditions: read-out: Ratio IC50
Plasmodium falciparum [2] = assay: Antimalarial activity against chloroquine-resistant Plasmodium falciparum W2 infected in red blood cells after 72 hrs by Malstat reagent based LDH assay; type: functional, cell-based; conditions: W2, 72 h
[3] = Resistance index, ratio of IC50 for Plasmodium falciparum W2 infected in red blood cells to IC50 for Plasmodium falciparum D6 infected in red blood cells; type: functional
[4] = Selectivity index, ratio of IC50 for African green monkey Vero cells to IC50 for chloroquine-resistant Plasmodium falciparum W2 infected in red blood cells; type: toxicity, cell-based; conditions: read-out: Ratio IC50
Plasmodium falciparum [5] = assay: Antimalarial activity against chloroquine-sensitive Plasmodium falciparum D6 infected in red blood cells after 72 hrs by Malstat reagent based LDH assay; type: functional, cell-based; conditions: D6, 72 h
Plasmodium falciparum [6] = assay: Antimalarial activity against chloroquine-resistant Plasmodium falciparum W2 infected in red blood cells up to 10 uM after 72 hrs by Malstat reagent based LDH assay; type: functional, cell-based
Heme [7] = assay: Binding affinity to monomeric heme (unknown origin) assessed as mole fraction of compound required to show 1:1 stoichiometry for heme-compound complex at pH 5.6 to 7.4 by Job's plot method
mu-oxodimeric heme [8] = assay: Binding affinity to mu-oxodimeric heme (unknown origin) in aqueous NaOH solution up to 15 uM at pH 5.8 by titration-based UV-vis spectrophotometric analysis
Heme [9] = assay: Binding affinity to monomeric heme (unknown origin) in DMSO/water solution up to 40 uM at pH 5.6 by titration-based UV-vis spectrophotometric analysis
mu-oxodimeric heme [10] = assay: Binding affinity to mu-oxodimeric heme (unknown origin) in aqueous NaOH solution assessed as 1:1 stoichiometry for heme-compound complex at pH 5.8 by Job's plot method

SMILES | Activity (Vero) | selectivity ratio [1] | pIC50 (Plasmodium falciparum [2]) | Ratio IC50 [3] | selectivity ratio [4] | pIC50 (Plasmodium falciparum [5]) | Activity (Plasmodium falciparum [6]) | Activity (mole fraction) (Heme [7]) | Activity (mu-oxodimeric heme [8]) | Activity (Heme [9]) | Activity (mu-oxodimeric heme [10])
CCN(CC)CCCC(C)Nc1ccnc2cc(Cl)ccc12 (stereo not drawn) [CHLOROQUINE] | Non-Toxic |  |  |  |  |  |  |  |  |  | 
CCN1CCN(c2cc(C)nc(N(CCNc3ccnc4cc(Cl)ccc34)Cc3ccco3)n2)CC1 | Non-Toxic | > 238 | 7.33 | 1.11 | > 213 | 7.38 |  |  |  |  | 
Cc1cc(N(CCNc2ccnc3cc(Cl)ccc23)Cc2ccco2)nc(Cl)n1 | Non-Toxic | > 156 | 7.12 | 1.17 | > 133 | 7.19 |  |  |  |  | 
Cc1cc(N2CCN(C)CC2)nc(N(CCCNc2ccnc3cc(Cl)ccc23)Cc2ccco2)n1 | Non-Toxic | > 204 | 7.32 | 0.979 | > 208 | 7.31 |  |  |  |  | 
CCc1nc(N)nc(N)c1-c1ccc(Cl)cc1 [PYRIMETHAMINE] | Non-Toxic | > 1110 |  |  |  |  | inactive |  |  |  | 
Cc1cc(N2CCOCC2)nc(N(CCCNc2ccnc3cc(Cl)ccc23)Cc2ccco2)n1 | Non-Toxic | > 189 | 6.78 | 3.15 | > 59.9 | 7.28 |  |  |  |  | 
Cc1cc(N(CCNc2ccnc3cc(Cl)ccc23)Cc2ccco2)nc(N2CCCC2)n1 | Non-Toxic | > 200 | 6.79 | 3.26 | > 61.3 | 7.30 |  |  |  |  | 
Cc1cc(N(CCNc2ccnc3cc(Cl)ccc23)Cc2ccco2)nc(N2CCCCC2)n1 | Non-Toxic | > 164 | 6.70 | 3.26 | > 50.2 | 7.21 |  |  |  |  | 
Cc1cc(N2CCOCC2)nc(N(CCNc2ccnc3cc(Cl)ccc23)Cc2ccco2)n1 | Non-Toxic | > 233 | 7.20 | 1.46 | > 159 | 7.37 |  |  |  |  | 
Cc1cc(N(CCNc2ccnc3cc(Cl)ccc23)Cc2ccco2)nc(N2CCOCC2)n1 | Non-Toxic | > 182 | 6.91 | 2.21 | > 82 | 7.26 |  |  |  |  | 
CCN1CCN(c2nc(C)cc(N(CCCNc3ccnc4cc(Cl)ccc34)Cc3ccco3)n2)CC1 | Non-Toxic | > 222 | 7.37 | 0.977 | > 233 | 7.36 |  |  |  |  | 
Cc1cc(N(CCCNc2ccnc3cc(Cl)ccc23)Cc2ccco2)nc(N2CCN(C)CC2)n1 | Non-Toxic | > 206 | 7.33 | 1.04 | > 213 | 7.35 |  |  |  |  | 
Cc1cc(N2CCCC2)nc(N(CCCNc2ccnc3cc(Cl)ccc23)Cc2ccco2)n1 | Non-Toxic | > 196 | 6.79 | 3.17 | > 61.7 | 7.29 |  |  |  |  | 
Cc1cc(N(CCCNc2ccnc3cc(Cl)ccc23)Cc2ccco2)nc(N2CCCCC2)n1 | Non-Toxic | > 233 | 7.14 | 1.67 | > 139 | 7.37 |  |  |  |  | 
Cc1cc(N(CCCNc2ccnc3cc(Cl)ccc23)Cc2ccco2)nc(N2CCOCC2)n1 | Non-Toxic | > 217 | 6.59 | 5.58 | > 38.9 | 7.34 |  |  |  |  | 
Cc1cc(N(CCNc2ccnc3cc(Cl)ccc23)Cc2ccco2)nc(N2CCN(C)CC2)n1 | Non-Toxic | > 244 | 7.39 | 1 | > 244 | 7.39 |  |  |  |  | 
Cc1cc(N2CCCC2)nc(N(CCNc2ccnc3cc(Cl)ccc23)Cc2ccco2)n1 | Non-Toxic | > 167 | 6.71 | 3.23 | > 51.5 | 7.22 |  |  |  |  | 
Cc1cc(N2CCCCC2)nc(N(CCCNc2ccnc3cc(Cl)ccc23)Cc2ccco2)n1 | Non-Toxic | > 169 | 6.71 | 3.33 | > 50.8 | 7.23 |  |  |  |  | 
Cc1cc(N2CCN(C)CC2)nc(N(CCNc2ccnc3cc(Cl)ccc23)Cc2ccco2)n1 | Non-Toxic | > 238 | 7.38 | 1 | > 238 | 7.38 |  |  |  |  | 
Cc1cc(N(CCCNc2ccnc3cc(Cl)ccc23)Cc2ccco2)nc(Cl)n1 | Non-Toxic | > 92.6 | 6.34 | 4.2 | > 22 | 6.97 |  |  |  |  | 
Cc1cc(Cl)nc(N(CCNc2ccnc3cc(Cl)ccc23)Cc2ccco2)n1 | Non-Toxic | > 125 | 7.21 | 0.775 | > 161 | 7.10 |  |  |  |  | 
CCN1CCN(c2cc(C)nc(N(CCCNc3ccnc4cc(Cl)ccc34)Cc3ccco3)n2)CC1 | Non-Toxic | > 250 | 7.41 | 0.975 | > 256 | 7.40 |  |  |  |  | 
Cc1cc(N2CCCCC2)nc(N(CCNc2ccnc3cc(Cl)ccc23)Cc2ccco2)n1 | Non-Toxic | > 222 | 6.69 | 4.63 | > 49 | 7.36 |  |  |  |  | 
C[C@@H]1CC[C@H]2[C@@H](C)C(=O)O[C@@H]3O[C@@]4(C)CC[C@@H]1[C@]32OO4 [ARTEMISININ] | Non-Toxic | > 222 | 7.64 | 0.511 | 435 | 7.35 |  |  |  |  | 
Cc1cc(Cl)nc(N(CCCNc2ccnc3cc(Cl)ccc23)Cc2ccco2)n1 | Non-Toxic | > 29.7 | 6.30 | 1.5 | > 19.8 | 6.47 |  |  |  |  | 
Cc1cc(N(CCCNc2ccnc3cc(Cl)ccc23)Cc2ccco2)nc(N2CCCC2)n1 | Non-Toxic | > 222 | 7.12 | 1.72 | > 132 | 7.36 |  |  |  |  | 
CCN1CCN(c2nc(C)cc(N(CCNc3ccnc4cc(Cl)ccc34)Cc3ccco3)n2)CC1 | Non-Toxic | > 263 | 7.40 | 1.05 | > 250 | 7.42 |  | 0.5 | Active | Active | Active
